Source: patent US7179819B2, “VLA-4 inhibitor compounds” (Daiichi Pharmaceutical Co., Ltd., priority 1999, dated 2007)
Counter-ions that a name gives are not always drawn.

tested on: not listed separately; test: Mouse bio-assay: serum concentration after oral dosing, determined by direct binding assay of diluted serum; settings: female, Balb/c, serum, po, 10 mg/kg
Description: A compound was dissolved or suspended with an appropriate solvent at 1 mg/mL. Female Balb/c mice (7–9 weeks old) were given the compound orally. Blood samples were collected from the postcaval vein of the anesthetized mice after fifteen minutes. Serum was prepared and stored at −20° C. Serum concentration of the compound was determined from inhibitory activities of the diluted serum by a direct binding assay using VLA-4-expressing cells and VCAM-IgG fusion protein. Serum concentration determined by this method correlated well with the concentration determined by LC/MS/MS methodologies.

| concentration at 15 min [ng/mL] | Compound |
| --- | --- |
| 368 | Cc1ccccc1NC(=O)Nc1ccc(CC(=O)N2C[C@@H](F)C[C@H]2COc2ccc(C(=O)O)cc2)cc1C [Compound 78, 4-[(4S)-fluoro-1-[3-methyl-4-[N′-(2-methylphenyl)ureido]phenylacetyl]-(2S)-pyrrolidinyl]methoxybenzoic acid] |
| 1730 | Cc1ccccc1NC(=O)Nc1ccc(CC(=O)N2C[C@@H](F)C[C@H]2COc2ccc(C(=O)O)cc2)c(F)c1F [Compound 97, 4-[1-[4-[N′-(2-methylphenyl)ureido]-2,3 difluorophenylacetyl]-(4S)-fluoro-(2S)-pyrrolidinylmethoxy]benzoic acid] |
| 2800 | Cc1ccccc1NC(=O)Nc1cc(F)c(CC(=O)N2C[C@@H](F)C[C@H]2COc2ccc(C(=O)O)cc2)cc1F [Compound 98, 4-[1-[4-[N′-(2-methylphenyl)ureido]-2,5-difluorophenylacetyl]-(4S)-fluoro-(2S)-pyrrolidinylmethoxy]benzoic acid] |
| 503 | COc1cc(CC(=O)N2C[C@@H](Cl)C[C@H]2COc2ccc(C(=O)O)cc2)ccc1NC(=O)Nc1ccccc1Cl [Compound 102, 4-[(4S)-chloro-1-[3-methoxy-4-[N′-(2-chlorophenyl)ureido]phenylacetyl]-(2S)-pyrrolidinyl]methoxybenzoic acid] |
| 841 | COc1cc(CC(=O)N2C[C@@H](Oc3ccc4ccccc4c3)C[C@H]2COc2ccc(C(=O)O)cc2)ccc1NC(=O)Nc1ccccc1Cl [Compound 124, 4-[(2S,4S)-1-[4-[N′-(2-chlorophenyl)ureido]-3-methoxyphenylacetyl]-4-(2-naphtyloxy)-2-pyrrolidinyl]methoxybenzoic acid] |
| 224 | COc1cc(CC(=O)N2C[C@@H](OC)C[C@H]2COc2ccc(C(=O)O)cc2)ccc1NC(=O)Nc1ccccc1Br [Compound 134, 4-[(2S,4S)-1-[4-[N′-(2-bromophenyl)ureido]-3-methoxyphenylacetyl]-4-methoxy-2-pyrrolidinyl]methoxybenzoic acid] |
| 527 | COc1cc(CC(=O)N2[C@H](COc3ccc(C(=O)O)cc3)CC[C@@H]2c2ccccc2)ccc1NC(=O)Nc1ccccc1Cl [Compound 146, 4-[1-[4-[N′-(2-chlorophenyl)ureido]-3-methoxyphenylacetyl]-5-(R)-phenyl-2-(S)-pyrrolidinylmethoxy]benzoic acid] |
| 360 | COc1cc(CC(=O)N2C3CCCCC3C[C@H]2COc2ccc(C(=O)O)cc2)ccc1NC(=O)Nc1ccccc1Cl (stereo partly drawn) [Compound 166, 4-[1-[4-[N′-(2-chlorophenyl)ureido]-3-methoxyphenylacetyl]-(2S)-octahydroindolylmethoxy]benzoic acid] |
| 428 | COc1cc(CC(=O)N2C3CCCCC3C[C@H]2COC2CCC(C(=O)O)CC2)ccc1NC(=O)Nc1ccccc1Br (stereo partly drawn) [Compound 179, cis-4-[-1-[4-[N′-(2-bromophenyl)ureido]-3-methoxylphenylacetyl]-(2S)-octahydroindolylmethoxy]cyclohexanecarboxylic acid] |
| 669 | C#CCN(CCOc1ccc(C(=O)O)cc1)C(=O)Cc1ccc(NC(=O)Nc2ccccc2Cl)c(OC)c1 [Compound 309, 4-[2-N-[4-[N′-(2-chlorophenyl)ureido]-3-methoxyphenyl]-N-propargylacetamido]-ethoxybenzoic acid] |

same assay, conditions: female, Balb/c, serum, po, 50 mg/kg

| concentration at 30 min [ng/mL] | concentration at 15 min [ng/mL] | Compound |
| --- | --- | --- |
| 3610 |  | COc1cc(CC(=O)N2CCC[C@H]2COc2ccc(C(=O)O)cc2)ccc1NC(=O)Nc1ccccc1Cl [Compound 58, 4-[1-[4-[N′-(2-chlorophenyl)ureido]-3-methoxylphenylacetyl]-(2S)-pyrrolindinyl]methoxybenzoic acid] |
| 2100 |  | COc1cc(CC(=O)N(CCOc2ccc(C(=O)OC(C)C)cc2)CCN2CCOCC2)ccc1NC(=O)Nc1ccccc1C [Compound 318, isopropyl 4-[2-N-[2-(4-morpholinyl)ethyl]-N-[3-methoxy-4-[N′-(2-methylphenyl)ureido]phenyl]acetamido]ethoxybenzoate] |
|  | 603 | COc1cc(CC(=O)N(CCOc2ccc(C(=O)O)cc2)CCN2CCC(F)(F)C2)ccc1NC(=O)Nc1ccccc1Br [Compound 319, 4-[2-N-[2-(3,3-difluoro-1-pyrrolidinyl)ethyl]-N-[4-[N′-(2-bromophenyl)ureido]-3-methoxyphenyl]acetamido]ethoxybenzoic acid sodium salt] |
|  | 1420 | C=CCN(CC=C)CCN(CCOc1ccc(C(=O)O)cc1)C(=O)Cc1ccc(NC(=O)Nc2ccccc2Cl)c(OC)c1 [Compound 323, 4-[2-N-(N′, N′-diallyl)ethyl-N-[4-[N′-(2-chlorophenyl)ureido]-3-methoxyphenylacetamido]ethoxy]benzoic acid sodium salt] |

tested on: not given; test: not given; settings: not given

| melting point | Compound |
| --- | --- |
| 126 to 131 °C | COc1cc(CC(=O)N2C[C@@H](Cl)C[C@H]2COc2ccc(C(=O)O)cc2)ccc1NC(=O)Nc1ccccc1Cl [Compound 102, 4-[(4S)-chloro-1-[3-methoxy-4-[N′-(2-chlorophenyl)ureido]phenylacetyl]-(2S)-pyrrolidinyl]methoxybenzoic acid] |
| 133 to 136 °C | COc1cc(CC(=O)N2C3CCCCC3C[C@H]2COc2ccc(C(=O)O)cc2)ccc1NC(=O)Nc1ccccc1Cl (stereo partly drawn) [Compound 166, 4-[1-[4-[N′-(2-chlorophenyl)ureido]-3-methoxyphenylacetyl]-(2S)-octahydroindolylmethoxy]benzoic acid] |
| 115 to 120 °C | COc1cc(CC(=O)N2C3CCCCC3C[C@H]2COC2CCC(C(=O)O)CC2)ccc1NC(=O)Nc1ccccc1Br (stereo partly drawn) [Compound 179, cis-4-[-1-[4-[N′-(2-bromophenyl)ureido]-3-methoxylphenylacetyl]-(2S)-octahydroindolylmethoxy]cyclohexanecarboxylic acid] |
| 130 to 135 °C | COc1cc(CC(=O)N(C)CCOc2ccc(C(=O)O)cc2NC(C)C)ccc1NC(=O)Nc1ccccc1C [Compound 285, 3-isopropylamino-4-[[2-[3-methoxy-4-[′-(2-methylphenyl)ureido]phenylacetyl]methylamino]ethoxy]benzoic acid] |
| 125 to 130 °C | COc1cc(CC(=O)N(C)CCN(C)c2ccc(C(=O)O)cc2)ccc1NC(=O)Nc1ccccc1C [Compound 286, 4-[[2-[3-methoxy-4-[N′-(2-methylphenyl)ureido]phenylacetyl]methylamino]ethyl]methylamino benzoic acid] |
| 125 to 130 °C | COc1cc(CC(=O)N(Cc2ccccc2)[C@@H](C)COc2ccc(C(=O)O)cc2Cl)ccc1NC(=O)Nc1ccccc1F [Compound 287, (S)-3-chloro-4-[2-[N-benzyl-N-[3-methoxy-4-[N′-(2-fluorophenyl)ureido]phenylacetyl]amino]-1-propoxy]benzoic acid] |
| 130 to 135 °C | COc1cc(CC(=O)N(C)CCOc2ccc(C(=O)O)cc2N(C)C(C)C)ccc1NC(=O)Nc1ccccc1C [Compound 288, 3-(N-isopropyl-N-methylamino)-4-[[2-[3-methoxy-4-[N′-(2-methylphenyl)ureido]phenylacetyl]methylamino]ethoxy]benzoic acid] |
| 125 to 130 °C | COc1cc(CC(=O)N(C)CCOc2ccc(C(=O)O)cc2N2CCCCC2)ccc1NC(=O)Nc1ccccc1F [Compound 289, 3-(1-piperidinyl)-4-[[2-[3-methoxy-4-[N′-(2-fluorophenyl)ureido]phenylacetyl]methylamino]ethoxy]benzoic acid] |
| 125 to 130 °C | COc1cc(CC(=O)N(C)CCOc2ccc(C(=O)O)cc2N)ccc1NC(=O)Nc1ccccc1C [Compound 290, 3-amino-4-[[2-[3-methoxy-4-[N′-(2-methylphenyl)ureido]phenylacetyl]methylamino]ethoxy]benzoic acid] |
| 120 to 125 °C | COc1cc(CC(=O)N(C)CCOc2ccc(C(=O)O)cc2N2CCCCC2)ccc1NC(=O)Nc1ccccc1C [Compound 291, 3-(1-piperidinyl)-4-[[2-[3-methoxy-4-[N′-(2-methylphenyl)ureido]phenylacetyl]methylamino]ethoxy]benzoic acid] |
| 125 to 130 °C | COc1cc(CC(=O)N(C)CCOc2ccc(C(=O)O)cc2N)ccc1NC(=O)Nc1ccccc1F [Compound 292, 3-amino-4-[[2-[3-methoxy-4-[N′-(2-fluorophenyl)ureido]phenylacetyl]methylamino]ethoxy]benzoic acid] |
| 200 to 204 °C | COc1cc(CC(=O)N[C@@H](C)COc2ccc(C(=O)O)cc2N)ccc1NC(=O)Nc1ccccc1C [Compound 293, (S)-3-amino-4-[2-[3-methoxy-4-[N′-(2-methylphenyl)ureido]phenylacetylamino]-1-propoxy]benzoic acid] |
| 202 to 205 °C | COc1cc(CC(=O)N[C@@H](C)COc2ccc(C(=O)O)cc2)ccc1NC(=O)Nc1ccccc1Br [Compound 294, (S)-4-[2-[3-methoxy-4-[N′-(2-bromophenyl)ureido]phenylacetylamino]-1-propoxy]benzoic acid] |
| 155 to 160 °C | COc1cc(CC(=O)N(C)CCNc2ccc(C(=O)O)c(NC(C)=O)c2)ccc1NC(=O)Nc1ccccc1Br [Compound 303, 2-acetylamino-4-[2-N-[4-[N′-(2-bromophenyl)ureido]-3-methoxyphenyl]-N-methylacetamido]ethylaminobenzoic acid] |
| 174 to 180 °C (dec.) | Cc1cc(CC(=O)N2C[C@@H](F)C[C@H]2COc2ccc(C(=O)O)cc2)ccc1NC(=O)Nc1c(Cl)cccc1Cl [Example 83, 4-[(2S, 4S)-1-[4-[N′-(2,6-Dichlorophenyl)ureido]-3-methylphenylacetyl]4-fluoro-2-pyrrolidinyl]methoxybenzoic acid] |
| 138 to 141 °C | COc1cc(CC(=O)N2C[C@@H](NS(=O)(=O)c3cccc4c(N(C)C)cccc34)C[C@H]2COc2ccc(C(=O)O)cc2)ccc1NC(=O)Nc1ccccc1Br [Example 155, 4-[1-[4-[N′-(2-bromophenyl)ureido]-3-methoxyphenylacetyl]-4dansylamino-(2S)-pyrrolidinyl]methoxybenzoic acid] |

tested on: eosinophil infiltration; test: Murine model of Ascaris-induced bronchial inflammation: eosinophil infiltration into bronchoalveolar lavage fluid; assay type: in vivo; settings: mouse, oral dosage of 50 mg/kg
Description: The VLA-4 inhibitors may be further characterized in in vivo assays. One such assay examines the inhibition of eosinophil infiltration into the bronchoalveolar lavage fluid in the mouse (murine) model. In this assay, the animals are treated with cyclophosphamide on day 0. On days 2 and 14, the animals are immunized intraperitoneally with Ascaris suum extract. Seven days later, the animals are treated with various doses of the VLA-4 inhibitor. Shortly after drug administration, the animals are challenged with Ascaris suum extract by instillation into the trachea. Bronchoalveolar lavage of the animal is performed by instilling saline into the lung, 48 hours later. Total cell and eosinophil counts in the lavage are determined.

| Compound | % Inhibition of Eosinophil Infiltration [%] |
| --- | --- |
| 4-(N′-2-methylphenylurea)phenylacetyl-LDVP-OH [reference compound] | −2 |

tested on: not listed separately; test: in vivo; settings: monkey, serum, intravenous, 2 mg/kg

| concentration at 5 min [ng/mL] | concentration at 30 min [ng/mL] | concentration at 1 hr [ng/mL] | concentration at 2 hr [ng/mL] | concentration at 4 hr [ng/mL] | concentration at 8 hr [ng/mL] | Compound |
| --- | --- | --- | --- | --- | --- | --- |
| 4060 | 1190 | 771 | 479 | 348 | 137 | CC(C)NCC(O)COc1ccc(CC(N)=O)cc1 (stereo not shown) [ATENOLOL, reference compound] |
